In the supplement of paper PMC11061612:

Legend:
Assay in all cases: combination Emax (second highest fraction inhibited in the dose matrix, 72 h); higher = more inhibition; extreme values may be limits of the assay
[1] = system: NCI-H2405 (Lung Adenocarcinoma)
Summary of the method: (§1)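 Cell lines grown in DMEM/F12 or RPMI with 10% FBS were plated in 1536-well plates and held 24 hours at 37°C, 5% CO2 before 72 hours of exposure to two-drug dose matrices, with DMSO typically at 0.2%. CellTiter-Glo 2.0 luminescence gave viability, which was converted to inhibition. Vehicle wells were set to 0 and blank wells to 1. Combination Emax is the second-highest inhibition in the matrix, and Bliss excess is the observed combination effect minus the expected EA + EB − EA·EB, where EA and EB are the single-agent effects.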

[2] = system: LOU-NH91 (Squamous Cell Lung Carcinoma)
Summary of the method: as §1

[3] = system: ASH-3 (Thyroid Gland Carcinoma)
Summary of the method: as §1

[4] = system: SCC-3 (B-Cell Non-Hodgkin's Lymphoma)
Summary of the method: as §1

[5] = system: HSC-2 (Oral Cavity Carcinoma)
Summary of the method: as §1

[6] = system: NCI-H2347 (Lung Adenocarcinoma)
Summary of the method: as §1

[7] = system: OVISE (Ovarian Carcinoma)
Summary of the method: as §1

[8] = system: JHH-7 (Hepatocellular Carcinoma)
Summary of the method: as §1

[9] = system: MFE-319 (Endometrial Carcinoma)
Summary of the method: as §1

NB7 (Neuroblastoma) = system: NB7 (Neuroblastoma)
Summary of the method: as §1

[10] = system: NCI-N87 (Gastric Carcinoma)
Summary of the method: as §1

GOTO (Neuroblastoma) = system: GOTO (Neuroblastoma)
Summary of the method: as §1

[11] = system: OCUM-1 (Gastric Carcinoma)
Summary of the method: as §1

[12] = system: PF-382 (T-Lymphoblastic Leukemia)
Summary of the method: as §1

BT-20 (Breast Carcinoma) = system: BT-20 (Breast Carcinoma)
Summary of the method: as §1

RPMI-7951 (Melanoma) = system: RPMI-7951 (Melanoma)
Summary of the method: as §1

[13] = system: NCI-H322M (Lung Adenocarcinoma)
Summary of the method: as §1

[14] = system: TGBC11TKB (Gastric Carcinoma)
Summary of the method: as §1

EW-18 (Ewing's Sarcoma) = system: EW-18 (Ewing's Sarcoma)
Summary of the method: as §1

[15] = system: KU-19-19 (Bladder Carcinoma)
Summary of the method: as §1

Row | Compound | combination Emax [1] | combination Emax [2] | combination Emax [3] | combination Emax [4] | combination Emax [5] | combination Emax [6] | combination Emax [7] | combination Emax [8] | combination Emax [9] | combination Emax (NB7 (Neuroblastoma)) | combination Emax [10] | combination Emax (GOTO (Neuroblastoma)) | combination Emax [11] | combination Emax [12] | combination Emax (BT-20 (Breast Carcinoma)) | combination Emax (RPMI-7951 (Melanoma)) | combination Emax [13] | combination Emax [14] | combination Emax (EW-18 (Ewing's Sarcoma)) | combination Emax [15]
1 | CC1(C)CCC(CN2CCN(c3ccc(C(=O)NS(=O)(=O)c4ccc(NCC5CCOCC5)c([N+](=O)[O-])c4)c(Oc4cnc5[nH]ccc5c4)c3)CC2)=C(c2ccc(Cl)cc2)C1 [Venetoclax] + C[C@@H]1COCCN1C2=NC(=NC(=C2)C3(CC3)[S@](=N)(=O)C)C4=C5C=CNC5=NC=C4 [AZD6738] (first compound max 1 µM, 7x7, partner max 10 µM) | 0.305 | 0.411 | 0.57 | 0.938 | 0.824 | 0.402 | 0.677 | 0.285 | 0.837 | 0.5 | 0.736 | 0.966 | 0.672 | 0.927 | 0.491 | 0.887 | 0.894 | 0.901 | 0.67 | 0.745
2 | CC1(C)CCC(CN2CCN(c3ccc(C(=O)NS(=O)(=O)c4ccc(NCC5CCOCC5)c([N+](=O)[O-])c4)c(Oc4cnc5[nH]ccc5c4)c3)CC2)=C(c2ccc(Cl)cc2)C1 [Venetoclax] + C[C@@H](Nc1cc(F)cc(F)c1)c1cc(C(=O)N(C)C)cc2c(=O)cc(N3CCOCC3)oc12 [AZD8186] (first compound max 1 µM, 7x7, partner max 3 µM) | 0.0892 | 0.221 | 0.332 | 0.207 | 0.92 | 0.189 | 0.238 | 0.0915 | 0.0342 | 0.295 | 0.578 | 0.305 | 0.137 | 0.202 | 0.0992 | 0.496 | 0.237 | 0.203 | 0.599 | 0.0745
3 | CC1(C)CCC(CN2CCN(c3ccc(C(=O)NS(=O)(=O)c4ccc(NCC5CCOCC5)c([N+](=O)[O-])c4)c(Oc4cnc5[nH]ccc5c4)c3)CC2)=C(c2ccc(Cl)cc2)C1 [Venetoclax] + Cc1cc2ncnn2cc1Nc1ncc2c(n1)n(C1CCOCC1)c(=O)n2C [AZD7648] (first compound max 1 µM, 7x7, partner max 10 µM) | 0.103 | 0.264 | 0.263 | 0.214 | 0.304 | 0.194 | 0.275 | 0.134 | 0.26 | 0.0987 | 0.354 | 0.434 | 0.216 | 0.355 | 0.374 | 0.334 | 0.414 | 0.133 | 0.455 | 0.225
4 | CC1(C)CCC(CN2CCN(c3ccc(C(=O)NS(=O)(=O)c4ccc(NCC5CCOCC5)c([N+](=O)[O-])c4)c(Oc4cnc5[nH]ccc5c4)c3)CC2)=C(c2ccc(Cl)cc2)C1 [Venetoclax] + Cn1cnc2c(F)c(Nc3ccc(Br)cc3Cl)c(C(=O)NOCCO)cc21 [Selumetinib] (first compound max 1 µM, 7x7, partner max 3 µM) | 0.373 | 0.246 | 0.294 | 0.205 | 0.161 | 0.344 | 0.206 | 0.145 | 0.145 | 0.137 | 0.242 | 0.236 | 0.918 | 0.18 | 0.231 | 0.424 | 0.541 | 0.313 | 0.26 | 0.748
